Laboratory results from article PMC5344293, “A phase 1 dose-escalation and expansion study of binimetinib (MEK162), a potent and selective oral MEK1/2 inhibitor” (British Journal of Cancer, 2017).

Experiment: Phase 1 safety: adverse events
Assay type: in vivo, human
Description: All patients underwent a complete medical history and physical examination, assessment of ECOG performance status and vital signs, and laboratory analysis of haematology, coagulation, clinical chemistry, and urine. Three serial resting and supine 12-lead electrocardiograms were conducted over 5–10 min and cardiac ejection fraction was assessed by echocardiogram or MUGA. In addition, a complete ophthalmologic examination (including visual acuity; fundoscopy and tonometry; optical coherence tomography; and slit-lamp, lens, vitreous, and fluorescence dye examinations) was performed on each patient. These assessments were repeated throughout study participation and/or as clinically indicated. Adverse events were reviewed on an ongoing basis.
Adverse events and serious AEs (SAEs) were coded by preferred term (PT) and system organ class using the Medical Dictionary for Regulatory Activities version 12.0. The severity of AEs was assessed by investigators using the National Cancer Institute Common Terminology Criteria for Adverse Events version 3.0. Two AEs of special interest were captured under the composite terms of ‘combined rash' and ‘combined ocular events.' The ‘combined rash' term included the PTs of dermatitis acneiform, acne, skin exfoliation, and any term containing ‘rash'. The ‘combined ocular events' term included the PTs of retinal deposits, retinopathy, papilloedema, chorioretinopathy, macular oedema, retinal detachment, and retinal disorder.
All patients who received ⩾1 dose of binimetinib were included in the safety analysis. Patients in the safety analysis who had ⩾1 measurable lesion at baseline and at least 1 post-baseline disease assessment were evaluable for efficacy. Kaplan–Meier estimates of progression-free survival (PFS) and overall survival (OS) were performed for patients in the expansion phase ([Kaplan and Meier, 1958]) using SAS Version 9.2 (SAS Institute Inc., Cary, NC, USA).

[1] = AEs regardless of causality, N=93

In the case of Cn1cnc2c(F)c(Nc3ccc(Br)cc3F)c(C(=O)NOCCO)cc21 [binimetinib], the Anaemia (80 mg BID (n=4), Gr 1/2) is reported as 0 (0) n (%), the Anorexia (80 mg BID (n=4), Gr 1/2) is reported as 1 (25) n (%) and the Combined ocular events (80 mg BID (n=4), Gr 1/2) is reported as 1 (25) n (%). For the same compound, the Combined rash (80 mg BID (n=4), Gr 1/2) was 0 (0) n (%), the Constipation (80 mg BID (n=4), Gr 1/2) was 0 (0) n (%) and the Diarrhoea (80 mg BID (n=4), Gr 1/2) was 1 (25) n (%). For the same compound, the Dizziness (80 mg BID (n=4), Gr 1/2) was 0 (0) n (%), the Dyspnoea (80 mg BID (n=4), Gr 1/2) was 1 (25) n (%) and the Fatigue (80 mg BID (n=4), Gr 1/2) was 1 (25) n (%). For the same compound, the Nausea (80 mg BID (n=4), Gr 1/2) was 1 (25) n (%), the Peripheral oedema (80 mg BID (n=4), Gr 1/2) was 2 (50) n (%) and the Pyrexia (80 mg BID (n=4), Gr 1/2) was 0 (0) n (%). The Vomiting (80 mg BID (n=4), Gr 1/2) was 2 (50) n (%), the Abdominal pain (80 mg BID (n=4), Gr 3/4) was 0 (0) n (%) and the Anaemia (80 mg BID (n=4), Gr 3/4) was 0 (0) n (%). For the same compound, the Anorexia (80 mg BID (n=4), Gr 3/4) was 0 (0) n (%), the Combined ocular events (80 mg BID (n=4), Gr 3/4) was 1 (25) n (%) and the Combined rash (80 mg BID (n=4), Gr 3/4) was 1 (25) n (%). For the same compound, the Constipation (80 mg BID (n=4), Gr 3/4) was 0 (0) n (%), the Diarrhoea (80 mg BID (n=4), Gr 3/4) was 0 (0) n (%) and the Dizziness (80 mg BID (n=4), Gr 3/4) was 0 (0) n (%). For the same compound, the Dyspnoea (80 mg BID (n=4), Gr 3/4) was 0 (0) n (%), the Fatigue (80 mg BID (n=4), Gr 3/4) was 0 (0) n (%) and the Nausea (80 mg BID (n=4), Gr 3/4) was 0 (0) n (%). For the same compound, the Peripheral oedema (80 mg BID (n=4), Gr 3/4) was 0 (0) n (%), the Pyrexia (80 mg BID (n=4), Gr 3/4) was 0 (0) n (%) and the Vomiting (80 mg BID (n=4), Gr 3/4) was 0 (0) n (%). For the same compound, the “AEs resulting in treatment discontinuation, patients” value (80 mg BID dose group) was 25%, the “AEs that resulted in dose reduction, patients” value (80 mg BID dose group) was 75% and the “Incidence of ocular events” value (80 mg BID dose group) was 50%. For the same compound, the “Incidence of peripheral oedema” value (80 mg BID dose group) was 50%, the “Median time to onset of ocular events” value (18 patients with ocular events, range, 2–168 days) was 17 days and the “Patients who experienced grade 2 events” value [1] was 41%. For the same compound, the “Patients who experienced grade 3 events” value [1] was 49%, the “Grade 3 abdominal pain” value (N=93) was 4% and the “Grade 3 anaemia” value (N=93) was 11%. For the same compound, the “Grade 3 dehydration” value (N=93) was 4%, the “Grade 4 AEs, patients” value (N=93) was 6% and the “Grade 4 anaemia” value (N=93) was 3%. For the same compound, the “Grade 5 events” value (N=93) was “no grade 5 events”, the Abdominal pain (Total (N=93), all grades) was 20 (22) n (%) and the Anaemia (Total (N=93), all grades) was 24 (26) n (%). For the same compound, the Anorexia (Total (N=93), all grades) was 18 (19) n (%), the Combined ocular events (Total (N=93), all grades) was 18 (19) n (%) and the Combined rash (Total (N=93), all grades) was 75 (81) n (%). For the same compound, the Constipation (Total (N=93), all grades) was 18 (19) n (%), the Diarrhoea (Total (N=93), all grades) was 47 (51) n (%) and the Dizziness (Total (N=93), all grades) was 14 (15) n (%). For the same compound, the Dyspnoea (Total (N=93), all grades) was 17 (18) n (%), the Fatigue (Total (N=93), all grades) was 40 (43) n (%) and the Nausea (Total (N=93), all grades) was 52 (56) n (%). For the same compound, the Peripheral oedema (Total (N=93), all grades) was 43 (46) n (%), the Pyrexia (Total (N=93), all grades) was 17 (18) n (%) and the Vomiting (Total (N=93), all grades) was 48 (52) n (%). The “Diarrhoea, patients” value (all dose levels, all grades) was 51%, the “Fatigue, patients” value (all dose levels, all grades) was 43% and the “Nausea, patients” value (all dose levels, all grades) was 56%. The “Ocular events (combined), patients” value (all dose levels, all grades) was 19%, the “Peripheral oedema, patients” value (all dose levels, all grades) was 46% and the “Rash (combined rash and related skin disorders), patients” value (all dose levels, all grades) was 81%. The “Vomiting, patients” value (all dose levels, all grades) was 52%, the “AEs of increased blood CK, patients” value (all patients) was 13% and the “AEs of increased blood CK-MB, patients” value (all patients) was 1%. For the same compound, the “Combined rash grade 1, patients” value (all patients) was 44%, the “Combined rash grade 2, patients” value (all patients) was 33% and the “Discontinuation due to combined rash” value (all patients) was 2%. For the same compound, the “Discontinuation due to fatigue” value (all patients) was 3%, the “Discontinuation due to nausea” value (all patients) was 3% and the “Discontinuation due to small intestinal obstruction” value (all patients) was 2%. For the same compound, the “Dose modification for AEs of increased blood CK, patients” value (all patients) was 4%, the “Dose reduction due to chorioretinopathy” value (all patients) was 9% and the “Dose reduction due to combined rash” value (all patients) was 3%. For the same compound, the “Dose reduction due to diarrhoea” value (all patients) was 2%, the “Dose reduction due to fatigue” value (all patients) was 2% and the “Dose reduction due to increased CK” value (all patients) was 2%. For the same compound, the “Dose reduction due to macular oedema” value (all patients) was 2%, the “Dose reduction due to myodesopsia” value (all patients) was 2% and the “Dose reduction due to photopsia” value (all patients) was 3%. The “Dose reduction due to retinal detachment” value (all patients) was 3%, the “Dose reduction due to retinopathy” value (all patients) was 2% and the “Dose reduction due to visual impairment” value (all patients) was 2%. For the same compound, the “Dose reduction due to vomiting” value (all patients) was 2%, the “Grade 3 ocular event of chorioretinopathy, patients” value (all patients) was 1% and the “Maximum reported SAE severity grade 2, patients” value (all patients) was 5%. For the same compound, the “Maximum reported SAE severity grade 3, patients” value (all patients) was 22%, the “Maximum reported SAE severity grade 4, patients” value (all patients) was 3% and the “Maximum reported severity of nausea, vomiting, or diarrhoea” value (all patients) was “either grade 1 or grade 2”. For the same compound, the “Ocular events grade 1, patients” value (all patients) was 5%, the “Ocular events grade 2, patients” value (all patients) was 13% and the “Peripheral oedema maximum severity grade 1, patients” value (all patients) was 32%. For the same compound, the “Peripheral oedema maximum severity grade 2, patients” value (all patients) was 14%, the “Permanent discontinuation for peripheral oedema, patients” value (all patients) was 1% and the SAE anaemia (all patients) was 4%. For the same compound, the SAE bacteraemia (all patients) was 2%, the SAE dehydration (all patients) was 2% and the SAE gastrointestinal haemorrhage (all patients) was 2%. For the same compound, the SAE pneumonia (all patients) was 2%, the “SAE small intestinal obstruction” value (all patients) was 2% and the SAE ulcer haemorrhage (all patients) was 2%. For the same compound, the “Grade 1 venous stasis retinopathy, patients” value (all patients, led to permanent discontinuation) was 1%, the “Combined rash grade 3, patients” value (all patients, required dose modification or discontinuation) was 3% and the “Patients who died during the study or within 30 days of the last dose” value (cause of death disease progression in all) was 22%. For the same compound, the “Patients reporting SAEs” value (during the study or within 30 days of the last dose, all patients) was 30%, the “Increased CK, patients” value (laboratory values, all patients) was 69% and the Ocular events recovering/resolving (of patients with ocular events) was 17%. The “Ocular events with complete resolution” value (of patients with ocular events) was 78%, the “Ocular events with stable retinal findings at treatment discontinuation” value (of patients with ocular events) was 6% and the “Clinically significant CK values, patients” value (shifted by ⩾3 grades from baseline and/or grade 4) was 10%.
